Data set [1] relates to HCV replicon RNA (GenBank Accession No. AJ242654). Briefly: HCV Replicon Assay (replicon RNA reduction and/or Fluc reporter signal). The conditions noted are these: Hepatitis C virus, 72 h, replicon-containing cells cultured with test compound for up to 3 days. Format: cell-based, Hepatitis C virus. The essentials:
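Bicistronic replicon-containing cells cultured with compound for up to 3 days, with interferon as positive control. Inhibition quantified by replicon RNA reduction and/or Fluc reporter signal; IC50 values generally derived from replicon RNA reduction.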
In general terms: In antiviral work, replicon cells carry a viral genome segment that copies itself.

Drawing on patent publication US9593108B2, “Compounds and methods for antiviral treatment” (PTC Therapeutics, Inc., priority 2009, dated 2017), this text covers IC50 and melting point for 25 molecules.

What is called IC50 is the concentration at which inhibition is half-maximal. Higher therefore signals weaker potency in that assay. A word on the melting point: it is the temperature of the solid-liquid transition.

As for `CCc1cnc2c(c1)c(C(N)=O)c(-c1ccc(S(=O)(=O)NC(C)(C)C(F)(F)F)cc1)n2C1CCC1` [Cpd 378, 1-cyclobutyl-5-ethyl-2-{4-[(1,1,1-trifluoro-2-methylpropan-2-yl)sulfamoyl]phenyl}-1H-pyrrolo[2,3-b]pyridine-3-carboxamide], the melting point lay within 185 to 193 °C. Besides, the IC50 in data set [1] is less than 500 nM.

Molecule `CC(C)(C)NS(=O)(=O)c1ccc(-c2c(C#N)c3cc(C(F)(F)F)cnc3n2-c2cnccn2)nc1` [Cpd 526, N-tert-butyl-6-[3-cyano-1-(pyrazin-2-yl)-5-(trifluoromethyl)-1H-pyrrolo[2,3-b]pyridin-2-yl]pyridine-3-sulfonamide] displayed a melting point of 214.2 to 215.4 °C. For the same molecule, the IC50 in data set [1] was less than 500 nM.

On to `CSc1cnc2c(c1)c(C#N)c(-c1ccc(S(=O)(=O)NC3(C(F)(F)F)CC3)cn1)n2C1CCCC1` [Cpd 274, 6-[3-cyano-1-cyclopentyl-5-(methylsulfanyl)-1H-pyrrolo[2,3-b]pyridin-2-yl]-N-[1-(trifluoromethyl)cyclopropyl]pyridine-3-sulfonamide], for which the melting point fell in the range of 200 to 203 °C. For the same molecule, the IC50 in data set [1] is less than 500 nM.

In turn, `C[C@@H](NS(=O)(=O)c1ccc(-c2c(C#N)c3cnc(Cl)cc3n2C2CCCC2)nc1)C(F)(F)F` [Cpd 81, 6-(6-chloro-3-cyano-1-cyclopentyl-1H-pyrrolo[3,2-c]pyridin-2-yl)-N-[(2R)-1,1,1-trifluoropropan-2-yl]pyridine-3-sulfonamide] registered a melting point of 239 to 240 °C. The same molecule had an IC50 in data set [1] of less than 500 nM.

In turn, `C[C@H](NS(=O)(=O)c1ccc(-c2c(C#N)c3cc(S(C)(=O)=O)cnc3n2C2CCCC2)nc1)C(F)(F)F` [Cpd 305, 6-[3-cyano-1-cyclopentyl-5-(methylsulfonyl)-1H-pyrrolo[2,3-b]pyridin-2-yl]-N-[(2S)-1,1,1-trifluoropropan-2-yl]pyridine-3-sulfonamide] came in with a melting point of 260 to 261 °C. The same molecule came in with a half-inhibitory concentration (IC50) in data set [1] of less than 500 nM.

On to `Cc1cnc2c(c1)c(C#N)c(-c1ccc(S(=O)(=O)N[C@@H](C)C(F)(F)F)cc1)n2C1CCC1` [Cpd 73, 4-(3-cyano-1-cyclobutyl-5-methyl-1H-pyrrolo[2,3-b]pyridin-2-yl)-N-[(2S)-1,1,1-trifluoropropan-2-yl]benzenesulfonamide], for which the melting point was in the range of 197 to 198 °C. The IC50 in data set [1] was less than 500 nM.

In turn, `Cc1cc(S(=O)(=O)N[C@@H](C)C(F)(F)F)cnc1-c1c(C#N)c2cc(Cl)cnc2n1C1CCCC1` [Cpd 290, 6-(5-chloro-3-cyano-1-cyclopentyl-1H-pyrrolo[2,3-b]pyridin-2-yl)-5-methyl-N-[(2S)-1,1,1-trifluoropropan-2-yl]pyridine-3-sulfonamide] showed a melting point of 240 to 245 °C. The same molecule displayed an IC50 in data set [1] of less than 500 nM.

`Cc1cnc2c(c1)c(C#N)c(-c1ncc(S(=O)(=O)N[C@@H](C)C(F)(F)F)cn1)n2C1CCC1` [Cpd 71, 2-(3-cyano-1-cyclobutyl-5-methyl-1H-pyrrolo[2,3-b]pyridin-2-yl)-N-[(2S)-1,1,1-trifluoropropan-2-yl]pyrimidine-5-sulfonamide] came in with a melting point of 186 to 188 °C. In data set [1], this molecule showed an IC50 of less than 500 nM.

Consider `Cc1cc2c(cn1)c(C#N)c(-c1ccc(S(=O)(=O)N[C@@H](C)C(F)(F)F)cn1)n2C1CCC1` [Cpd 28, 6-(3-cyano-1-cyclobutyl-6-methyl-1H-pyrrolo[3,2-c]pyridin-2-yl)-N-[(2S)-1,1,1-trifluoropropan-2-yl]pyridine-3-sulfonamide], for which the melting point was 189 to 191 °C. The molecule further displayed an IC50 in data set [1] of 2000 to 5000 nM.

The molecule `COc1ccc2c(C#N)c(-c3ccc(S(=O)(=O)NC(CF)CF)cn3)n(C3CCC3)c2n1` [Cpd 41, 6-(3-cyano-1-cyclobutyl-6-methoxy-1H-pyrrolo[2,3-b]pyridin-2-yl)-N-(1,3-difluoropropan-2-yl)pyridine-3-sulfonamide] gave a melting point of 194 to 195 °C. For the same molecule, the IC50 in data set [1] is less than 500 nM.

In turn, `Cc1cnc2c(C#N)c(-c3ccc(S(=O)(=O)NC4(C(F)(F)F)CC4)cn3)n(C3CCC3)c2c1` [Cpd 208, 6-(3-cyano-1-cyclobutyl-6-methyl-1H-pyrrolo[3,2-b]pyridin-2-yl)-N-[1-(trifluoromethyl)cyclopropyl]pyridine-3-sulfonamide] returned a melting point of 248 to 249 °C. In addition, the IC50 in data set [1] was less than 500 nM.

Regarding `COc1cnc2c(c1)c(C#N)c(-c1ccc(S(=O)(=O)N[C@@H](C)C(F)(F)F)c[n+]1[O-])n2C1CCC1` [Cpd 236, 6-(3-cyano-1-cyclobutyl-5-methoxy-1H-pyrrolo[2,3-b]pyridin-2-yl)-N-[(2S)-1,1,1-trifluoropropan-2-yl]pyridine-3-sulfonamide 1-oxide], the melting point lay within 155 to 157 °C. In data set [1], this molecule yielded an IC50 of 2000 to 5000 nM.

The molecule `CC(C)(NS(=O)(=O)c1ccc(-c2c(C(N)=O)c3cccnc3n2C2CCC2)cc1)C(F)(F)F` [Cpd 388, 1-cyclobutyl-2-{4-[(1,1,1-trifluoro-2-methylpropan-2-yl)sulfamoyl]phenyl}-1H-pyrrolo[2,3-b]pyridine-3-carboxamide] yielded a melting point of 240 to 242 °C. For the same molecule, the IC50 in data set [1] lay in the range of 500 to 2000 nM.

In turn, `C[C@H](NS(=O)(=O)c1ccc(-c2c(C#N)c3cc(N(C)C)cnc3n2C2CCC2)nc1)C(F)(F)F` [Cpd 497, 6-[3-cyano-1-cyclobutyl-5-(dimethylamino)-1H-pyrrolo[2,3-b]pyridin-2-yl]-N-[(2S)-1,1,1-trifluoropropan-2-yl]pyridine-3-sulfonamide] gave a melting point of 183 to 185 °C. The molecule further had an IC50 in data set [1] of less than 500 nM.

Molecule `Cc1cnc2c(c1)c(C#N)c(-c1ccc(S(=O)(=O)N[C@@H](C)C(F)(F)F)cn1)n2-c1cc(N)ccn1` [Cpd 434, 6-[1-(4-aminopyridin-2-yl)-3-cyano-5-methyl-1H-pyrrolo[2,3-b]pyridin-2-yl]-N-[(2S)-1,1,1-trifluoropropan-2-yl]pyridine-3-sulfonamide] came in with a melting point of 202 to 203 °C. Also, the IC50 in data set [1] fell in the range of 2000 to 5000 nM.

Take `Cc1nc2c(cc1C(F)(F)F)c(C#N)c(-c1ccc(S(=O)(=O)N[C@@H](C)C(F)(F)F)cn1)n2C1CCC1` [Cpd 405, 6-[3-cyano-1-cyclobutyl-6-methyl-5-(trifluoromethyl)-1H-pyrrolo[2,3-b]pyridin-2-yl]-N-[(2S)-1,1,1-trifluoropropan-2-yl]pyridine-3-sulfonamide]: the melting point lay in the range of 201 to 203 °C. In data set [1], this molecule had an IC50 of less than 500 nM.

For `COc1cnc2c(c1)c(C(N)=O)c(-c1ccc(NS(=O)(=O)C(C)(C)C)cc1)n2C1CCCC1` [Cpd 359, 2-{4-[(tert-butylsulfonyl)amino]phenyl}-1-cyclopentyl-5-methoxy-1H-pyrrolo[2,3-b]pyridine-3-carboxamide], the melting point lay in the range of 269 to 272 °C. The concentration for half-maximal inhibition (IC50) in data set [1] is less than 500 nM.

In turn, `Cc1cnc2c(c1)c(C#N)c(-c1ccc(NC(=O)C(C)C)cc1)n2C1CCC1` [Cpd 265, N-[4-(3-cyano-1-cyclobutyl-5-methyl-1H-pyrrolo[2,3-b]pyridin-2-yl)phenyl]-2-methylpropanamide] gave a melting point of 134 to 140 °C. In data set [1], this molecule registered an IC50 of 500 to 2000 nM.

In the case of `CCc1cnc2c(c1)c(C#N)c(-c1ccc(S(=O)(=O)NC3CCC3)cn1)n2C1CCC1` [Cpd 194, 6-(3-cyano-1-cyclobutyl-5-ethyl-1H-pyrrolo[2,3-b]pyridin-2-yl)-N-cyclobutylpyridine-3-sulfonamide], the melting point is 168 to 177 °C. For the same molecule, the IC50 in data set [1] was less than 500 nM.

As to `CC[C@H](NS(=O)(=O)c1ccc(-c2c(C#N)c3cc(Cl)cnc3n2C2CCC2)nc1)C(F)(F)F` [Cpd 276, 6-(5-chloro-3-cyano-1-cyclobutyl-1H-pyrrolo[2,3-b]pyridin-2-yl)-N-[(2S)-1,1,1-trifluorobutan-2-yl]pyridine-3-sulfonamide], the melting point is 186 to 191 °C. The molecule further returned an IC50 in data set [1] of less than 500 nM.

`C[C@@H](NS(=O)(=O)c1ccc(-c2c(C#N)c3cc(Cl)cnc3n2CC2CC2)nc1)C(F)(F)F` [Cpd 59, 6-[5-chloro-3-cyano-1-(cyclopropylmethyl)-1H-pyrrolo[2,3-b]pyridin-2-yl]-N-[(2R)-1,1,1-trifluoropropan-2-yl]pyridine-3-sulfonamide] showed a melting point of 224 to 226 °C. Moreover, the IC50 in data set [1] fell in the range of 500 to 2000 nM.

Regarding `C[C@H](NS(=O)(=O)c1cnc(-c2c(C#N)c3cc(C4CC4)cnc3n2C2CCC2)nc1)C(F)(F)F` [Cpd 119, 2-(3-cyano-1-cyclobutyl-5-cyclopropyl-1H-pyrrolo[2,3-b]pyridin-2-yl)-N-[(2S)-1,1,1-trifluoropropan-2-yl]pyrimidine-5-sulfonamide], the melting point was in the range of 176 to 183 °C. Moreover, the IC50 in data set [1] was less than 500 nM.

Turning to `N#Cc1c(-c2ccc(S(=O)(=O)NC(CF)CF)cc2)n(C2CCC2)c2ncc(C3CC3)cc12` [Cpd 130, 4-(3-cyano-1-cyclobutyl-5-cyclopropyl-1H-pyrrolo[2,3-b]pyridin-2-yl)-N-(1,3-difluoropropan-2-yl)benzenesulfonamide], the melting point was in the range of 225 to 230 °C. The same molecule came in with an IC50 in data set [1] of less than 500 nM.

`Cc1cnc2c(c1)c(C#N)c(-c1ccc(S(=O)(=O)N[C@@H](C)C(F)(F)F)cc1)n2CC1CC1` [Cpd 487, 4-[3-cyano-1-(cyclopropylmethyl)-5-methyl-1H-pyrrolo[2,3-b]pyridin-2-yl]-N-[(2S)-1,1,1-trifluoropropan-2-yl]benzenesulfonamide]: the melting point was 175 to 181 °C. Besides, in data set [1], the IC50 is less than 500 nM.

`C[C@H](NS(=O)(=O)c1ccc(-c2c(C#N)c3cc(C(F)(F)F)cnc3n2-c2ncccn2)nc1)C(F)(F)F` [Cpd 303, 6-[3-cyano-1-(pyrimidin-2-yl)-5-(trifluoromethyl)-1H-pyrrolo[2,3-b]pyridin-2-yl]-N-[(2S)-1,1,1-trifluoropropan-2-yl]pyridine-3-sulfonamide] yielded a melting point of 213 to 215 °C. In addition, the IC50 in data set [1] was less than 500 nM.
